# Tests used:
# Format in all cases: cell-based, human
# [1] = system: SW1990 pancreatic cancer cells; test: MTS assay of SW1990 cultures, single 50 μM dose; conditions: SW1990, 50 μM
# Outline: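 MTS-based viability was measured 24, 48 or 72 h after a single 50 μM treatment; the agents were α/β/γ/δ-tocotrienol, α/β-tocopherol, tocopherol succinate, geranylgeraniol or succinic acid. The cells were SW1990, cultured in 10% FBS DMEM. Vehicle (ethanol-extracted olive oil) cultures ran in parallel as reference.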
# MiaPaCa-2 cells [2] = test: MTS assay of MiaPaCa2 cultures, single 50 μM dose; conditions: MiaPaCa2, 50 μM
# Outline: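 This MTS viability assay used MiaPaCa2 cultures treated once with 50 μM compound or vehicle, with an untreated culture grown in parallel for comparison. Cells were maintained in DMEM supplemented with 10% FBS, 1% penicillin-streptomycin and 1% L-glutamine at 37° C. under 5% CO2 and humidity.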
# MiaPaCa-2 cells [3] = test: MTT assay of MiaPaCa2 cultures, single 50 μM dose; parameters: rel amt (relative value set to the control): unit not given here; conditions: MiaPaCa2, 50 μM; for MTT assay result, av-blank: average minus blank; for MTT assay result, av: average of 7 runs
# Outline: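 Viability measured by MTT 48 or 120 hours post-treatment, with a vehicle-only (ethanol-extracted olive oil) culture as control. MiaPaCa-2 cultures received one 50 μM exposure to a tocotrienol, tocopherol, tocopherol succinate, geranylgeraniol or succinic acid.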
smiles,measurement,setting,value
Cc1c(O)cc2c(c1C)O[C@](C)(CCC[C@H](C)CCC[C@H](C)CCCC(C)C)CC2 [T gamma],rel amnt (relative value set to the control),[1]; 24 hours,116
same,"MTS assay result, run 1",[1]; 24 hours,0.175
same,"MTS assay result, run 2",[1]; 24 hours,0.165
same,"MTS assay result, run 3",[1]; 24 hours,0.167
same,"MTS assay result, run 4",[1]; 24 hours,0.154
same,"MTS assay result, run 5",[1]; 24 hours,0.198
same,"MTS assay result, run 6",[1]; 24 hours,0.168
same,"MTS assay result, run 7",[1]; 24 hours,0.178
same,"MTS assay result, run 8",[1]; 24 hours,0.16
same,"MTS assay result, run 9",[1]; 24 hours,0.171
same,rel amnt (relative value set to the control),[1]; 48 hours,94
same,"MTS assay result, run 1",[1]; 48 hours,0.131
same,"MTS assay result, run 2",[1]; 48 hours,0.133
same,"MTS assay result, run 3",[1]; 48 hours,0.14
same,"MTS assay result, run 4",[1]; 48 hours,0.141
same,"MTS assay result, run 5",[1]; 48 hours,0.142
same,"MTS assay result, run 6",[1]; 48 hours,0.122
same,"MTS assay result, run 7",[1]; 48 hours,0.16
same,"MTS assay result, run 8",[1]; 48 hours,0.164
same,"MTS assay result, run 9",[1]; 48 hours,0.142
same,rel amnt (relative value set to the control),[1]; 72 hours,108
same,"MTS assay result, run 1",[1]; 72 hours,0.5
same,"MTS assay result, run 2",[1]; 72 hours,0.497
same,"MTS assay result, run 3",[1]; 72 hours,0.46
same,"MTS assay result, run 4",[1]; 72 hours,0.505
same,"MTS assay result, run 5",[1]; 72 hours,0.515
same,"MTS assay result, run 6",[1]; 72 hours,0.469
same,"MTS assay result, run 7",[1]; 72 hours,0.43
same,"MTS assay result, run 8",[1]; 72 hours,0.451
same,"MTS assay result, run 9",[1]; 72 hours,0.478
same,rel amt (relative value set to the control),MiaPaCa-2 cells [2]; 24 hours,121
same,"MTS assay result, run 1",MiaPaCa-2 cells [2]; 24 hours,0.273
same,"MTS assay result, run 2",MiaPaCa-2 cells [2]; 24 hours,0.261
same,"MTS assay result, run 3",MiaPaCa-2 cells [2]; 24 hours,0.268
same,"MTS assay result, run 4",MiaPaCa-2 cells [2]; 24 hours,0.219
same,"MTS assay result, run 5",MiaPaCa-2 cells [2]; 24 hours,0.264
same,"MTS assay result, run 6",MiaPaCa-2 cells [2]; 24 hours,0.31
same,"MTS assay result, run 7",MiaPaCa-2 cells [2]; 24 hours,0.295
same,"MTS assay result, run 8",MiaPaCa-2 cells [2]; 24 hours,0.263
same,"MTS assay result, run 9",MiaPaCa-2 cells [2]; 24 hours,0.269
same,rel amt (relative value set to the control),MiaPaCa-2 cells [2]; 48 hours,81
same,"MTS assay result, run 1",MiaPaCa-2 cells [2]; 48 hours,0.329
same,"MTS assay result, run 2",MiaPaCa-2 cells [2]; 48 hours,0.265
same,"MTS assay result, run 3",MiaPaCa-2 cells [2]; 48 hours,0.304
same,"MTS assay result, run 4",MiaPaCa-2 cells [2]; 48 hours,0.25
same,"MTS assay result, run 5",MiaPaCa-2 cells [2]; 48 hours,0.289
same,"MTS assay result, run 6",MiaPaCa-2 cells [2]; 48 hours,0.341
same,"MTS assay result, run 7",MiaPaCa-2 cells [2]; 48 hours,0.301
same,"MTS assay result, run 8",MiaPaCa-2 cells [2]; 48 hours,0.279
same,"MTS assay result, run 9",MiaPaCa-2 cells [2]; 48 hours,0.295
same,rel amt (relative value set to the control),MiaPaCa-2 cells [2]; 72 hours,108
same,"MTS assay result, run 1",MiaPaCa-2 cells [2]; 72 hours,0.5
same,"MTS assay result, run 2",MiaPaCa-2 cells [2]; 72 hours,0.497
same,"MTS assay result, run 3",MiaPaCa-2 cells [2]; 72 hours,0.46
same,"MTS assay result, run 4",MiaPaCa-2 cells [2]; 72 hours,0.505
same,"MTS assay result, run 5",MiaPaCa-2 cells [2]; 72 hours,0.515
same,"MTS assay result, run 6",MiaPaCa-2 cells [2]; 72 hours,0.469
same,"MTS assay result, run 7",MiaPaCa-2 cells [2]; 72 hours,0.429
same,"MTS assay result, run 8",MiaPaCa-2 cells [2]; 72 hours,0.451
same,"MTS assay result, run 9",MiaPaCa-2 cells [2]; 72 hours,0.478
same,rel amt (relative value set to the control),MiaPaCa-2 cells [3]; 48 hours,94
same,"MTT assay result, av-blank",MiaPaCa-2 cells [3]; 48 hours,0.292
same,"MTT assay result, av",MiaPaCa-2 cells [3]; 48 hours,0.338
same,"MTT assay result, run 1",MiaPaCa-2 cells [3]; 48 hours,0.35
same,"MTT assay result, run 2",MiaPaCa-2 cells [3]; 48 hours,0.323
same,"MTT assay result, run 3",MiaPaCa-2 cells [3]; 48 hours,0.312
same,"MTT assay result, run 4",MiaPaCa-2 cells [3]; 48 hours,0.36
same,"MTT assay result, run 5",MiaPaCa-2 cells [3]; 48 hours,0.348
same,"MTT assay result, run 6",MiaPaCa-2 cells [3]; 48 hours,0.328
same,"MTT assay result, run 7",MiaPaCa-2 cells [3]; 48 hours,0.348
same,rel amt (relative value set to the control),MiaPaCa-2 cells [3]; 120 hours (5 days),87
same,"MTT assay result, av-blank",MiaPaCa-2 cells [3]; 120 hours (5 days),1.566
same,"MTT assay result, av",MiaPaCa-2 cells [3]; 120 hours (5 days),1.618
same,"MTT assay result, run 1",MiaPaCa-2 cells [3]; 120 hours (5 days),1.52
same,"MTT assay result, run 2",MiaPaCa-2 cells [3]; 120 hours (5 days),1.516
same,"MTT assay result, run 3",MiaPaCa-2 cells [3]; 120 hours (5 days),1.547
same,"MTT assay result, run 4",MiaPaCa-2 cells [3]; 120 hours (5 days),1.625
same,"MTT assay result, run 5",MiaPaCa-2 cells [3]; 120 hours (5 days),1.917
same,"MTT assay result, run 6",MiaPaCa-2 cells [3]; 120 hours (5 days),1.568
same,"MTT assay result, run 7",MiaPaCa-2 cells [3]; 120 hours (5 days),1.635

# — patent publication US8846653B2, “Delta-tocotrienol treatment and prevention of pancreatic cancer” (University of South Florida, priority 2006, dated 2014)
